Measured values: patent US11780830B2, “Triazolone derivatives or salts thereof and pharmaceutical compositions comprising the same” (YUHAN CORPORATION, priority 2018, dated 2023)
Counter-ions that a name gives are not always drawn.

Key:
Type in all cases: biochemical
[1] = molecular target: T1, recombinant human MAO-A (monoamine oxidase-A) (Homo sapiens, UniProt P21397); test: Activity on recombinant human MAO-A, method similar to the VAP-1 assay; details: substrate 0.5 mM tyramine; read-out: Inhibitory Activity (IC50, nM) MAO-A
T1 construct: purchased Sigma-Aldrich
T1 sequence (P21397 1-527): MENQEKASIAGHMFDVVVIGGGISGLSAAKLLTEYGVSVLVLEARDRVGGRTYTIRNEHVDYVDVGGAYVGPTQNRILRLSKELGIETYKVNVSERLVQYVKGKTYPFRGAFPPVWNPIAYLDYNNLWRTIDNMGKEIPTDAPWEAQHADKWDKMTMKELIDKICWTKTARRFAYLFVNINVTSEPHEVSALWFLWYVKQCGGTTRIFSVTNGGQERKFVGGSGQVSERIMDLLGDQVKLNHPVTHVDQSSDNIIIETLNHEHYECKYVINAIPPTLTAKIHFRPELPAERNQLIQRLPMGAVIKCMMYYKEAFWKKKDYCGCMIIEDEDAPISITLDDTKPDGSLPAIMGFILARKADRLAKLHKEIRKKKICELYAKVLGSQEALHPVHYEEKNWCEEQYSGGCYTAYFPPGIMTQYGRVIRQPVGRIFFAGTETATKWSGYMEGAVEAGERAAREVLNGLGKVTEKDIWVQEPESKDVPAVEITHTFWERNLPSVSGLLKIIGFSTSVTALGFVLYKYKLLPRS
Method in brief: (§1)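 8-point, 1:3 dose-response, four-parameter logistic IC50 from reduction in fluorescence rate versus DMSO control. HRP/Amplex Red detection of H2O2 (ex 544, em 590 nm) after 30 min, 37 °C compound–enzyme preincubation in pH 7.4 phosphate buffer. MAO-A substrate: 0.5 mM tyramine; MAO-B: 1 mM benzylamine.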

[2] = molecular target: T2, recombinant human DAO (diamine oxidase) (Homo sapiens, UniProt P19801); test: Activity on recombinant human DAO, method similar to the VAP-1 assay; details: substrate 1 mM putrescine; read-out: Inhibitory Activity (IC50, nM) DAO
T2 construct: purchased R&D systems
T2 sequence (P19801 20-751): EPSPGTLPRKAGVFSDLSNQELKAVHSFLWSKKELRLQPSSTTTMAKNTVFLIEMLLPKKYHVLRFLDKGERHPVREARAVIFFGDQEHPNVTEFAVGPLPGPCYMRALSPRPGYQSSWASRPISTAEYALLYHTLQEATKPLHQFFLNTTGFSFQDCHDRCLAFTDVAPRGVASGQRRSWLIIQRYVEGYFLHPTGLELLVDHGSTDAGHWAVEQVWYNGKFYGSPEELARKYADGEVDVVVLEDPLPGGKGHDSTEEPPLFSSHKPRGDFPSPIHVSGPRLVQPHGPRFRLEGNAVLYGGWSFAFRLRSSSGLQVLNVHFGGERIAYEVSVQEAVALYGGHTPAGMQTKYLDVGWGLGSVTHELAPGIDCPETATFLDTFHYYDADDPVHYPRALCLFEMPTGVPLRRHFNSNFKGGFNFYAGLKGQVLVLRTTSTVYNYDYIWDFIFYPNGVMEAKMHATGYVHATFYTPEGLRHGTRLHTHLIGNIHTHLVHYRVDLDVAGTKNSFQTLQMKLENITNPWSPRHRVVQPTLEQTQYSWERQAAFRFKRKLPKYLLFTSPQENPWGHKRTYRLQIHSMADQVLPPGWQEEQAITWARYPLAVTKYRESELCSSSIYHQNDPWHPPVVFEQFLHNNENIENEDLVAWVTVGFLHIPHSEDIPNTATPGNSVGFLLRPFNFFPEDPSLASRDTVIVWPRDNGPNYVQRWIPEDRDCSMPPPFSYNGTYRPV
Method in brief: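 Inhibition of recombinant human diamine oxidase (DAO, R&D systems) was assessed by the same approach as the VAP-1 assay, using 1 mM putrescine as substrate. Hydrogen peroxide formed was detected through an HRP-coupled Amplex Red reaction yielding fluorescent resorufin, read at 544 nm excitation and 590 nm emission. IC50 values came from four-parameter logistic fitting in GraphPad Prism.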

[3] = molecular target: T3, recombinant human MAO-B (monoamine oxidase-B) (Homo sapiens, UniProt P27338); test: Activity on recombinant human MAO-B, method similar to the VAP-1 assay; details: substrate 1 mM benzylamine; read-out: Inhibitory Activity (IC50, nM) MAO-B
T3 construct: purchased Sigma-Aldrich
T3 sequence (P27338 1-520): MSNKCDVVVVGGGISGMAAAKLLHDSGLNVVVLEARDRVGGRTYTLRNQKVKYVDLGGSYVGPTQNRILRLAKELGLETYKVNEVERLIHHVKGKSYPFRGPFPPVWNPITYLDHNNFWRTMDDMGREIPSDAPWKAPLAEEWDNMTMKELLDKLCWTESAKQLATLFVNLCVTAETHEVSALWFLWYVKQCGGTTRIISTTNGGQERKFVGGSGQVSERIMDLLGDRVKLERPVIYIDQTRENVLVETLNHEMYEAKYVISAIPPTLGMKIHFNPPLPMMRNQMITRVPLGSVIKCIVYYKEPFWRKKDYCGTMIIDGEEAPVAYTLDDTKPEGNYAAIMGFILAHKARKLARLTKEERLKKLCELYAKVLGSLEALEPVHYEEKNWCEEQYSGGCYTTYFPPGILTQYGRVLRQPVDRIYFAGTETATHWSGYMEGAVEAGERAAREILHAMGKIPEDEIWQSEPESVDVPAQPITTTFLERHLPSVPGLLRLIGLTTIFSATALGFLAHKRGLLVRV
Method in brief: as §1

recombinant human VAP-1 = molecular target: T4, recombinant human VAP-1 (Homo sapiens, UniProt Q16853); test: Activity on recombinant human VAP-1, HRP-coupled Amplex Red hydrogen peroxide assay; details: substrate 1 mM benzylamine; compound incubated with enzyme at 37° C. for 30 minutes; pH 7.4; read-out: Inhibitory Activity (IC50, nM) human VAP-1
T4 construct: purchased R&D systems
T4 sequence (Q16853 1-763): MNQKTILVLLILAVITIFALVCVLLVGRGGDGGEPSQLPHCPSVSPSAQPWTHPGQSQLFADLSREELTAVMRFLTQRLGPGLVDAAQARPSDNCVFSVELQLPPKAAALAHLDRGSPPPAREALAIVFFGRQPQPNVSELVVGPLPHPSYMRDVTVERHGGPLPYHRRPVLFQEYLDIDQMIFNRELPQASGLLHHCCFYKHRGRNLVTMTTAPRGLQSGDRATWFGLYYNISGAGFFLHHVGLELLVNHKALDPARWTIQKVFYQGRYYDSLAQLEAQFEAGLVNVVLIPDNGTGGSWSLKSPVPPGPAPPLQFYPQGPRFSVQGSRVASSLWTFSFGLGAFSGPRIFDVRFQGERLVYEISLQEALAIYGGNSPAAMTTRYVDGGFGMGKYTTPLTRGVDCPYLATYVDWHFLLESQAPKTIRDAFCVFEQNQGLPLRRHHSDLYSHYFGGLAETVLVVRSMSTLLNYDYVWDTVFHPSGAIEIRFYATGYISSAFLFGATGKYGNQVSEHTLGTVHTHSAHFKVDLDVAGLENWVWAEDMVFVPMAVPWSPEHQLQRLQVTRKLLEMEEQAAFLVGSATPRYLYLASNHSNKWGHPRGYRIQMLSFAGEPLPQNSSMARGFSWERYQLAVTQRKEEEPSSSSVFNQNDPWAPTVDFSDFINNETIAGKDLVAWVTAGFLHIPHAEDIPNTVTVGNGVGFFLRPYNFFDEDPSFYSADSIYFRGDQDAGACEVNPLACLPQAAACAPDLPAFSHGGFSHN
Method in brief: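 Compounds were preincubated with purified enzyme in 50 mM sodium phosphate pH 7.4 at 37 °C for 30 min, then 200 uM Amplex Red, 1 mM benzylamine and 1 U/mL HRP were added. Resorufin fluorescence (ex 544/em 590 nm) was followed over 1-2 h; IC50 came from 4-parameter fits of signal-rate inhibition.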

Row | IC50 [1] [nM] | IC50 [2] [nM] | IC50 [3] [nM] | IC50 (recombinant human VAP-1) [nM] | SMILES
1 | > 100000 | 2400 | < 100 | 6.5 | NC/C(=C\F)Cn1ncn(Cc2ccc(-c3ccc(F)c(F)c3)s2)c1=O [Example 14, 2-[(2E)-2-(aminomethyl)-3-fluoroprop-2-en-1-yl]-4-[5-(3,4-difluorophenyl)thiophen-2-yl]methyl-2,4-dihydro-3H-1,2,4-triazol-3-one hydrochloride]
2 | > 100000 | 98 | 360 | 0.5 | NC/C(=C\F)Cn1ncn(Cc2ccc(-c3ccc(C(F)(F)F)nc3)s2)c1=O [Example 49, 2-[(2E)-2-(aminomethyl)-3-fluoroprop-2-en-1-yl]-4-(5-[6-(trifluoromethyl)pyridin-3-yl]thiophen-2-ylmethyl)-2,4-dihydro-3H-1,2,4-triazol-3-one hydrochloride]
3 | 18000 | 960 | 320 | 1.5 | NC/C(=C\F)Cn1ncn(Cc2ccc(-c3cc4c(cc3F)OCCN4)s2)c1=O [Example 107, 2-[(E)-2-(aminomethyl)-3-fluoro-allyl]-4-[[5-(7-fluoro-3,4-dihydro-2H-1,4-benzoxazin-6-yl)-2-thienyl]methyl]-1,2,4-triazol-3-one]
4 | > 100000 | 4200 | > 10000 | 9.2 | NC/C(=C\F)Cn1ncn(CCc2cccs2)c1=O [Example 141, 2-[(2E)-2-(aminomethyl)-3-fluoroprop-2-en-1-yl]-4-[2-(thiophen-2-yl)ethyl]-2,4-dihydro-3H-1,2,4-triazol-3-one]
5 | > 100000 | 590 | 9200 | 1.7 | Cc1cc(-c2ccc3sc(Cn4cnn(C/C(=C/F)CN)c4=O)cc3c2)cc2c1NC(=O)CC2 [Example 210, 6-[2-({1-[(2E)-2-(aminomethyl)-3-fluoroprop-2-en-1-yl]-5-oxo-1,5-dihydro-4H-1,2,4-triazol-4-yl}methyl)-1-benzothiophen-5-yl]-8-methyl-3,4-dihydroquinolin-2(1H)-one]
6 | 35000 | 9500 | 50 | 4.6 | CN(C)c1cccc(-c2ccc(Cn3cnn(C/C(=C/F)CN)c3=O)s2)c1 [Example 4, 2-[(2E)-2-(aminomethyl)-3-fluoroprop-2-en-1-yl]-4-(5-[3-(dimethylamino)phenyl]thiophen-2-ylmethyl)-2,4-dihydro-3H-1,2,4-triazol-3-one hydrochloride]
7 | 11000 | 160 | 1700 | 0.3 | NC/C(=C\F)Cn1ncn(Cc2ccc(-c3cc(F)c4c(c3)NC(=O)CO4)s2)c1=O [Example 94, 6-[5-[[1-[(E)-2-(aminomethyl)-3-fluoro-allyl]-5-oxo-1,2,4-triazol-4-yl]methyl]-2-thienyl]-8-fluoro-4H-1,4-benzoxazin-3-one hydrochloride]
8 | > 100000 | 380 | 6300 | 0.2 | NC/C(=C\F)Cn1ncn(Cc2ccc(-c3cc(F)c4c(c3)CCC(=O)N4)s2)c1=O [Example 80, 6-[5-[[1-[(E)-2-(aminomethyl)-3-fluoro-allyl]-5-oxo-1,2,4-triazol-4-yl]methyl]-2-thienyl]-8-fluoro-3,4-dihydro-1H-quinolin-2-one]
9 | > 100000 | 210 | 1900 | 0.1 | CN1C(=O)CCc2cc(-c3ccc(Cn4cnn(C/C(=C/F)CN)c4=O)s3)ccc21 [Example 79, 6-[5-(1-[(2E)-2-(aminomethyl)-3-fluoroprop-2-en-1-yl]-5-oxo-1,5-dihydro-4H-1,2,4-triazol-4-ylmethyl)thiophen-2-yl]-1-methyl-3,4-dihydroquinolin-2(1H)-one hydrochloride]
10 | > 100000 | 1500 | 5200 | 3 | NC/C(=C\F)Cn1ncn(Cc2cc3cc(-c4ccc(N5CCNCC5)cc4)ccc3s2)c1=O [Example 213, 2-[(2E)-2-(aminomethyl)-3-fluoroprop-2-en-1-yl]-4-({5-[4-(piperazin-1-yl)phenyl]-1-benzothiophen-2-yl}methyl)-2,4-dihydro-3H-1,2,4-triazol-3-one]
11 | > 100000 | 1500 | 990 | 2.3 | NC/C(=C\F)Cn1ncn(Cc2cc3cc(-c4ccc(C(F)(F)F)nc4)ccc3s2)c1=O [Example 209, 2-[(2E)-2-(aminomethyl)-3-fluoroprop-2-en-1-yl]-4-({5-[6-(trifluoromethyl)pyridin-3-yl]-1-benzothiophen-2-yl}methyl)-2,4-dihydro-3H-1,2,4-triazol-3-one]

Row | SMILES | IC50 [1] [nM] | IC50 [2] [nM] | IC50 [3] [nM] | IC50 (recombinant human VAP-1) [nM]
12 | NC/C(=C\F)Cn1ncn(Cc2ccc(C3=CCNCC3)s2)c1=O [Example 163, 2-[(2E)-2-(aminomethyl)-3-fluoroprop-2-en-1-yl]-4-{[5-(1,2,3,6-tetrahydropyridin-4-yl)thiophen-2-yl]methyl}-2,4-dihydro-3H-1,2,4-triazol-3-one] | > 100000 | 300 | 5500 | 2.1
